In PubChem BioAssay AID256 (DTP/NCI, 2004):
Several values for one entry are separate records, joined by “and”; a condition that tells them apart may be missing. Identical values can stand only once. Inconclusive results and toxic doses are left out. How the source made its calls: active means survival T/C of 150% or more; inactive means T/C below 125% in these data.

System: CD2F1 mice, L1210 leukemia ip, survival T/C
Test: NCI In Vivo Anticancer Drug Screen. Data for tumor model L1210 Leukemia (intraperitoneal) in CD2F1 (CDF1) mice
Settings: higher = longer survival
Summary of the method: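 Vehicle-treated tumor-bearing mice served as controls (C) for compound-treated mice (T). Reported figure is T divided by C.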

[1] = endpoint: mean survival time, dose: 100.0 mg/kg/injection, schedule: Q04DX003 (ip), vehicle: saline with Tween-80
[2] = endpoint: mean survival time, dose: 50.0 mg/kg/injection, schedule: Q01DX009 (ip), vehicle: saline with Tween-80
[3] = endpoint: mean survival time, dose: 200.0 mg/kg/injection, schedule: Q04DX003 (ip), vehicle: saline with Tween-80
[4] = endpoint: mean survival time, dose: 400.0 mg/kg/injection, schedule: Q04DX003 (ip), vehicle: saline with Tween-80
[5] = endpoint: mean survival time, dose: 200.0 mg/kg/injection, schedule: Q04DX003 (ip), vehicle: saline sonified
[6] = endpoint: mean survival time, dose: 12.5 mg/kg/injection, schedule: Q01DX009 (ip), vehicle: saline
[7] = endpoint: mean survival time, dose: 12.5 mg/kg/injection, schedule: Q04DX003 (ip), vehicle: saline
[8] = endpoint: mean survival time, dose: 25.0 mg/kg/injection, schedule: Q01DX009 (ip), vehicle: saline
[9] = endpoint: mean survival time, dose: 25.0 mg/kg/injection, schedule: Q04DX003 (ip), vehicle: saline
[10] = endpoint: mean survival time, dose: 100.0 mg/kg/injection, schedule: Q01DX009 (ip), vehicle: saline with Tween-80
[11] = endpoint: mean survival time, dose: 200.0 mg/kg/injection, schedule: Q01DX009 (ip), vehicle: saline with Tween-80
[12] = endpoint: mean survival time, dose: 50.0 mg/kg/injection, schedule: Q01DX009 (ip), vehicle: saline
[13] = endpoint: mean survival time, dose: 50.0 mg/kg/injection, schedule: Q04DX003 (ip), vehicle: saline
[14] = endpoint: mean survival time, dose: 100.0 mg/kg/injection, schedule: Q04DX002 (ip), vehicle: saline with Tween-80
[15] = endpoint: mean survival time, dose: 200.0 mg/kg/injection, schedule: Q04DX002 (ip), vehicle: saline with Tween-80
[16] = endpoint: mean survival time, dose: 400.0 mg/kg/injection, schedule: Q04DX002 (ip), vehicle: saline with Tween-80

Measured: T/C

NC(=O)c1ccc[n+](Cc2c(Cl)cccc2Cl)c1
inactive: [1] 105 % of control | endpoint: median survival time, dose: 0.75 mg/kg/injection, schedule: Q01DX009 (ip), vehicle: saline 102 % of control | endpoint: median survival time, dose: 1.5 mg/kg/injection, schedule: Q01DX009 (ip), vehicle: saline 101 % of control | endpoint: median survival time, dose: 3.0 mg/kg/injection, schedule: Q01DX009 (ip), vehicle: saline 109 % of control | endpoint: median survival time, dose: 6.0 mg/kg/injection, schedule: Q01DX009 (ip), vehicle: saline 102 % of control | endpoint: median survival time, dose: 12.0 mg/kg/injection, schedule: Q01DX009 (ip), vehicle: saline 102 % of control

Nc1ccc(NC(=O)Nc2ccccc2)cc1
inactive: endpoint: mean survival time, dose: 100.0 mg/kg/injection, schedule: Q01DX001 (ip), vehicle: Klucel (hydroxypropylcellulose) (HPC) 88 % of control | endpoint: mean survival time, dose: 200.0 mg/kg/injection, schedule: Q01DX001 (ip), vehicle: Klucel (hydroxypropylcellulose) (HPC) 96 % of control | endpoint: mean survival time, dose: 400.0 mg/kg/injection, schedule: Q01DX001 (ip), vehicle: Klucel (hydroxypropylcellulose) (HPC) 96 % of control

O=c1ccccn1CCc1ccccc1
inactive: endpoint: mean survival time, dose: 12.5 mg/kg/injection, schedule: Q01DX009 (ip), vehicle: saline with Tween-80 101 % of control | endpoint: mean survival time, dose: 25.0 mg/kg/injection, schedule: Q01DX009 (ip), vehicle: saline with Tween-80 98 % of control | [2] 101 % of control

Cc1c(Cl)cccc1NC(=O)CCl
inactive: [1] 100 % of control | [3] 93 % of control | [4] 90 % of control

N/C(=N/N=C/c1cc(Br)cc(Br)c1O)NO
inactive: endpoint: median survival time, dose: 12.5 mg/kg/injection, schedule: Q01DX005 (ip), vehicle: suspension in saline 105 % of control | endpoint: median survival time, dose: 25.0 mg/kg/injection, schedule: Q01DX005 (ip), vehicle: suspension in saline 100 % of control | endpoint: median survival time, dose: 50.0 mg/kg/injection, schedule: Q01DX005 (ip), vehicle: suspension in saline 105 % of control | endpoint: median survival time, dose: 100.0 mg/kg/injection, schedule: Q01DX005 (ip), vehicle: suspension in saline 116 % of control

CC(C)c1cc(C(C)C)nc(NNc2nc(C(C)C)cc(C(C)C)n2)n1
inactive: [1] 102 % of control | [3] 100 % of control | [4] 100 % of control

CC1(C)N=C(N)N=C(N)N1c1cccc(CCCCc2ccc(Cl)c(S(=O)(=O)F)c2)c1
inactive: endpoint: mean survival time, dose: 1.8 mg/kg/injection, schedule: Q01DX009 (ip), vehicle: saline 98 % of control | endpoint: mean survival time, dose: 3.5 mg/kg/injection, schedule: Q01DX009 (ip), vehicle: saline 93 % of control | endpoint: mean survival time, dose: 7.0 mg/kg/injection, schedule: Q01DX009 (ip), vehicle: saline 91 % of control | endpoint: mean survival time, dose: 14.0 mg/kg/injection, schedule: Q01DX009 (ip), vehicle: saline 89 % of control | endpoint: mean survival time, dose: 28.0 mg/kg/injection, schedule: Q01DX009 (ip), vehicle: saline 104 % of control | [5] 86 % of control

NC(=O)CC(NC(c1ccccc1)(c1ccccc1)c1ccccc1)C(=O)ON1C(=O)CCC1=O (centres undefined)
inactive: endpoint: mean survival time, dose: 100.0 mg/kg/injection, schedule: Q01DX001 (ip), vehicle: saline sonified 96 % of control | endpoint: mean survival time, dose: 200.0 mg/kg/injection, schedule: Q01DX001 (ip), vehicle: saline sonified 98 % of control | endpoint: mean survival time, dose: 400.0 mg/kg/injection, schedule: Q01DX001 (ip), vehicle: saline sonified 105 % of control

[NH-]CC[NH-].[NH-]CC[NH-].[NH-]CC[NH-].[Ni]
inactive: endpoint: mean survival time, dose: 6.25 mg/kg/injection, schedule: Q01DX009 (ip), vehicle: saline 103 % of control | endpoint: mean survival time, dose: 6.25 mg/kg/injection, schedule: Q04DX003 (ip), vehicle: saline 97 % of control | [6] 101 % of control | [7] 93 % of control | [8] 92 % of control | [9] 106 % of control

COc1ccc(N=C(C(=O)c2ccccc2)c2ccccc2)cc1
inactive: endpoint: mean survival time, dose: 100.0 mg/kg/injection, schedule: Q01DX001 (ip), vehicle: saline with Tween-80 95 % of control | endpoint: mean survival time, dose: 200.0 mg/kg/injection, schedule: Q01DX001 (ip), vehicle: saline with Tween-80 93 % of control | endpoint: mean survival time, dose: 400.0 mg/kg/injection, schedule: Q01DX001 (ip), vehicle: saline with Tween-80 100 % of control

CCO/N=C(\N)c1ccccc1
inactive: [2] 106 % of control | endpoint: mean survival time, dose: 100.0 mg/kg/injection, schedule: Q01DX001 (ip), vehicle: saline 111 % of control | [10] 98 % of control | endpoint: mean survival time, dose: 200.0 mg/kg/injection, schedule: Q01DX001 (ip), vehicle: saline 108 % of control | [11] 100 % of control | endpoint: mean survival time, dose: 400.0 mg/kg/injection, schedule: Q01DX001 (ip), vehicle: saline 104 % of control

Nc1nc(=O)n(CCCOc2ccccc2NC(=O)Nc2cccc(S(=O)(=O)F)c2)cc1-c1ccc(Cl)c(Cl)c1
inactive: endpoint: mean survival time, dose: 75.0 mg/kg/injection, schedule: Q01DX001 (ip), vehicle: saline with Tween-80 95 % of control | endpoint: mean survival time, dose: 150.0 mg/kg/injection, schedule: Q01DX001 (ip), vehicle: saline with Tween-80 95 % of control | endpoint: mean survival time, dose: 300.0 mg/kg/injection, schedule: Q01DX001 (ip), vehicle: saline with Tween-80 101 % of control

CCCCCCCCCCCc1n(Cc2ccccc2)c2ccccc2[n+]1C
inactive: endpoint: mean survival time, dose: 0.25 mg/kg/injection, schedule: Q01DX009 (ip), vehicle: saline 117 % of control | endpoint: mean survival time, dose: 0.25 mg/kg/injection, schedule: Q04DX003 (ip), vehicle: saline 102 % of control | endpoint: mean survival time, dose: 0.5 mg/kg/injection, schedule: Q01DX009 (ip), vehicle: saline 110 % of control | endpoint: mean survival time, dose: 0.5 mg/kg/injection, schedule: Q04DX003 (ip), vehicle: saline 104 % of control | endpoint: mean survival time, dose: 1.0 mg/kg/injection, schedule: Q01DX009 (ip), vehicle: saline 121 % of control | endpoint: mean survival time, dose: 1.0 mg/kg/injection, schedule: Q04DX003 (ip), vehicle: saline 106 % of control

O=C1OC(=O)C2C3C=CC(O3)C12 (centres undefined)
inactive: endpoint: mean survival time, dose: 10.0 mg/kg/injection, schedule: Q01DX009 (ip), vehicle: saline with Tween-80 100 % of control | [6] 105 % of control | [7] 95 % of control | endpoint: mean survival time, dose: 20.0 mg/kg/injection, schedule: Q01DX009 (ip), vehicle: saline with Tween-80 98 % of control | [8] 94 % of control | endpoint: mean survival time, dose: 25.0 mg/kg/injection, schedule: Q04DX002 (ip), vehicle: saline 104 % of control | [9] 98 % of control | [12] 102 % of control | endpoint: mean survival time, dose: 50.0 mg/kg/injection, schedule: Q04DX002 (ip), vehicle: saline 104 % of control | [13] 95 % of control | endpoint: mean survival time, dose: 100.0 mg/kg/injection, schedule: Q04DX002 (ip), vehicle: saline 97 % of control and 98 % of control

CC(=O)CCC(=O)C1SCCS1
inactive: [14] 101 % of control | [15] 97 % of control | [16] 101 % of control

Cc1ccc(S(=O)(=O)/C=C(\I)c2ccccc2)cc1
inactive: [10] 91 % of control | [1] 96 % of control | [11] 94 % of control | [3] 96 % of control | endpoint: mean survival time, dose: 400.0 mg/kg/injection, schedule: Q01DX009 (ip), vehicle: saline with Tween-80 94 % of control | [4] 93 % of control

CCOc1ccc(/C=C2N=C(/C=C/c3ccccc3)OC\2=O)cc1
inactive: [14] 91 % of control | [15] 95 % of control | [16] 91 % of control

Cn1nc(NC=O)c(C#N)c1C#N
inactive: endpoint: mean survival time, dose: 37.5 mg/kg/injection, schedule: Q04DX002 (ip), vehicle: saline with Tween-80 102 % of control | endpoint: mean survival time, dose: 75.0 mg/kg/injection, schedule: Q04DX002 (ip), vehicle: saline with Tween-80 102 % of control | endpoint: mean survival time, dose: 150.0 mg/kg/injection, schedule: Q04DX002 (ip), vehicle: saline with Tween-80 98 % of control

N=C(N)SSC(=N)N
inactive: [12] 96 % of control | endpoint: mean survival time, dose: 100.0 mg/kg/injection, schedule: Q01DX009 (ip), vehicle: saline 100 % of control

Cc1ccccc1S(=O)(=O)N(C)C
inactive: endpoint: mean survival time, dose: 100.0 mg/kg/injection, schedule: Q04DX003 (ip), vehicle: saline sonified 97 % of control | [5] 94 % of control | endpoint: mean survival time, dose: 400.0 mg/kg/injection, schedule: Q04DX003 (ip), vehicle: saline sonified 92 % of control

COc1ccc(CC2=NCCc3cc(OC)c(OC)cc32)cc1OC
inactive: [8] 95 % of control | [9] 110 % of control | [12] 101 % of control | [13] 104 % of control | endpoint: mean survival time, dose: 100.0 mg/kg/injection, schedule: Q04DX003 (ip), vehicle: saline 96 % of control and 103 % of control

CC(C)(O)C1CC2C=CC1C2 (centres undefined)
inactive: [14] 98 % of control | [15] 102 % of control | [16] 94 % of control
